Entries after “also recorded” stand apart in the source; their conditions may differ. Like-named read-outs stand apart in the source and are kept apart here.
Experiments:
[1] = tested on: nitric oxide production by stimulated J774.A1 macrophages; test: Nitric oxide production by LPS + IFN-γ stimulated J774.A1 macrophages (nitrite, Griess method); format: cell-based, murine; details: for IC50 / Emax: Mus musculus
Method: (§1) For cytokine and nitric oxide evaluations, J774.A1 cells were seeded in 96-well tissue culture plates at 2 × 10^5 cells per well in DMEM supplemented with 10% FBS and 50 μg/mL gentamicin and incubated for 2 h at 37 °C in a 5% CO2 atmosphere, as previously described. Cells were then stimulated with LPS (500 ng/mL) and IFN-γ (5 ng/mL) in the presence of either the test compounds at different concentrations (3.9–250 μM), the medium alone, or dexamethasone (40 μM, reference drug) and further incubated at 37 °C. Cell-free supernatants were collected 24 h after incubation for IL-1β, IL-6, and nitrite quantification. Cytokine concentrations in the supernatants of J774.A1 cultures were determined by enzyme-linked immunosorbent assay (ELISA) using the DuoSet kit (R&D Systems, Minneapolis, MN, USA), according to the manufacturer’s instructions. Results were expressed as picograms per milliliter (pg/mL) of IL-1β or IL-6. Quantification of nitrite as an indicator of nitric oxide production was performed using the Griess method. Three independent experiments were performed. −

[2] = tested on: murine macrophage-like J774.A1 cells; test: Cytotoxicity to J774.A1 macrophages (Alamar Blue); details: concentrations up to 500 μM (compounds 7 and 13 up to 250 μM)
Method: Cells were incubated for 72 h at 37 °C in a 5% CO2 atmosphere, as previously described. They were then stimulated with LPS (500 ng/mL, Sigma Chemical Co., St. Louis, MO, USA) and IFN-γ (5 ng/mL, Sigma). Compounds were added to the medium at eight concentrations ranging from 1.9 to 500 μM, in triplicate, and incubated for 24 h. Subsequently, 20 μL per well of Alamar Blue (Invitrogen, Carlsbad, CA, USA) was added to the plates for 6 h. Compounds 7, 11, and 13 were evaluated only up to a maximum concentration of 250 μM due to the limited amount of purified material available for testing. Colorimetric readings were performed at 570 and 600 nm. Triton X-100 (5%) was used as the positive control.

[3] = tested on: IL-1β production by stimulated J774.A1 macrophages; test: IL-1β production by LPS + IFN-γ stimulated J774.A1 macrophages (ELISA); format: cell-based, murine; details: compounds at 62.5 μM, Dexa 40 μM, 24 h, vs stimulated untreated cells, p < 0.05
Method: as §1, with “Cells” for “For cytokine and nitric oxide evaluations, J774.A1 cells were seeded in 96-well tissue culture plates at 2 × 10^5 cells per well in DMEM supplemented with 10% FBS and 50 μg/mL gentamicin and incubated for 2 h at 37 °C in a 5% CO2 atmosphere, as previously described. Cells”

[4] = tested on: IL-6 production by stimulated J774.A1 macrophages; test: IL-6 production by LPS + IFN-γ stimulated J774.A1 macrophages (ELISA); format: cell-based, murine; details: compounds at 62.5 μM, Dexa 40 μM, 24 h, vs stimulated untreated cells, p < 0.05
Method: as §1, with “Cells” for “For cytokine and nitric oxide evaluations, J774.A1 cells were seeded in 96-well tissue culture plates at 2 × 10^5 cells per well in DMEM supplemented with 10% FBS and 50 μg/mL gentamicin and incubated for 2 h at 37 °C in a 5% CO2 atmosphere, as previously described. Cells”

[5] = J774.A1, 24 h, read-out: IC50, half maximal inhibitory concentration, NO production, J774.A1 macrophages stimulated with LPS (500 ng/mL) + IFN-γ (5 ng/mL), 24 h, nitrite by Griess
[6] = J774.A1, 24 h, read-out: efficacy: maximum effect (% of the maximum possible effect), inhibition of NO production, J774.A1 macrophages stimulated with LPS + IFN-γ, 24 h
[7] = J774.A1, read-out: IC50 (in Figure 8 panels), nitric oxide production, Figure 8, no unit in the boxes, μM only in axis labels, LPS + IFN-γ stimulated J774.A1

SMILES | IC50 [1, 5] [µM] | Emax [1, 6] [%] | cytotoxic effects in J774 macrophages (in words) [2] | production of IL-1β (in words) [3] | efficacy: maximum effect (% of the maximum possible effect), inhibition of NO production ([1]; J774.A1 macrophages stimulated with LPS + IFN-γ, 24 h) [%] | IC50 [1, 7] [µM] | production of IL-6 (in words) [4] | IC50 ([1]; J774.A1, 24 h, J774.A1 macrophages stimulated with LPS (500 ng/mL) + IFN-γ (5 ng/mL), 24 h, nitrite by Griess, read-out: IC50, half maximal inhibitory concentration, NO production) [µM] | Emax ([1]; J774.A1, 24 h, J774.A1 macrophages stimulated with LPS + IFN-γ, 24 h, read-out: efficacy: maximum effect (% of the maximum possible effect), inhibition of NO production) [%]
COC1CC(OC2C(C)OC(OC3CCC4(C)C(CCC5(O)C4CC(OC(=O)C=Cc4ccccc4)C4(C)C(C(C)O)CCC54O)C3)CC2OC(C)=O)OC(C)C1OC1OC(C)C(OC2OC(CO)C(OC3OC(CO)C(O)C(O)C3O)C(O)C2O)C(OC)C1O [Compound 7, 12-O-cinnamoyl-(20S)-5,6,17-trihydrosarcostin-3-O-β-D-glucopyranosyl-(1 → 4)-β-D-glucopyranosyl-(1 → 4)-β-D-6-deoxy-3-O-methyl-allopyranosyl-(1 → 4)-β-D-oleandropyranosyl-(1 → 4)-β-D-3′-O-acetyl-cymaropyranoside] | > 100 | < 50 | did not exhibit cytotoxicity at the concentrations tested | did not reduce |  |  |  |  | 
COC1CC(OC2C(C)OC(OC3CCC4(C)C(CCC5(O)C4CC(OC(=O)C=Cc4ccccc4)C4(C)C(O)(C(C)OC(=O)c6cccnc6)CCC54O)C3)CC2OC(C)=O)OC(C)C1OC1OC(C)C(O)C(OC)C1O [Compound 3, 12-O-cinnamoyl-20-O-nicotinoyl-(20R)-5,6-dihydrosarcostin-3-O-β-D-6-deoxy-3-O-methyl-allopyranosyl-(1 → 4)-β-D-oleandropyranosyl-(1 → 4)-β-D-3′-O-acetyl-cymaropyranoside] | 29.1 | 71.8 | did not induce cytotoxic effects | significant reduction; also recorded: comparable to those of Dexa | 68.0 | 29.1 | comparable to those of Dexa |  | 
COC1CC(OC2CCC3(C)C(CCC4C3CC(OC(=O)C=Cc3ccccc3)C3(C)C(C(C)O)CCC43O)C2)OC(C)C1OC1CC(OC)C(OC2OC(C)C(O)C(OC)C2O)C(C)O1 [Compound 10, 12-O-cinnamoyl-(20S)-5,6,8,17-tetrahydrosarcostin-3-O-β-D-6-deoxy-3-O-methyl-allopyranosyl-(1 → 4)-β-D-oleandropyranosyl-(1 → 4)-β-D-cymaropyranoside] | 17.5 | 66.1 | most cytotoxic | significantly reducing; also recorded: significant reduction; also recorded: comparable to those of Dexa |  | 17.5 | significantly reducing; also recorded: comparable to those of Dexa |  | 
COC1CC(OC2CCC3(C)C(CCC4(O)C3CC(OC(C)=O)C3(C)C(C(C)OC(=O)c5ccccc5)CCC43O)C2)OC(C)C1OC1CC(OC)C(OC2OC(C)C(O)C(OC)C2O)C(C)O1 [Compound 18, 12-O-acetyl-20-O-benzoyl-(20R)-5,6,17-trihydrosarcostin-3-O-β-D-6-deoxy-3-O-methyl-allopyranosyl-(1 → 4)-β-D-oleandropyranosyl-(1 → 4)-β-D-cymaropyranoside] | 66.2 | < 50 |  | significant reduction |  | 66.2 |  |  | 
COC1CC(OC2C(C)OC(OC3CCC4(C)C(CCC5(O)C4CC(OC(=O)C=Cc4ccccc4)C4(C)C(C(C)O)CCC54O)C3)CC2OC(C)=O)OC(C)C1OC1OC(C)C(O)C(OC)C1O [Compound 13, 12-O-cinnamoyl-(20S)-5,6,17-trihydrosarcostin-3-O-β-D-6-deoxy-3-O-methyl-allopyranosyl-(1 → 4)-β-D-oleandropyranosyl-(1 → 4)-β-D-3′-O-acetyl-cymaropyranoside] | 42.4 | 59.3 | did not exhibit cytotoxicity at the concentrations tested | significant reduction |  | 42.4 |  |  | 
COC1CC(OC2C(C)OC(OC3CCC4(C)C(CCC5(O)C4CC(OC(C)=O)C4(C)C(C(C)OC(=O)c6ccccc6)CCC54O)C3)CC2OC(C)=O)OC(C)C1OC1OC(C)C(O)C(OC)C1O [Compound 17, 12-O-acetyl-20-O-benzoyl-(20R)-5,6,17-trihydrosarcostin-3-O-β-D-6-deoxy-3-O-methyl-allopyranosyl-(1 → 4)-β-D-oleandropyranosyl-(1 → 4)-β-D-3′-O-acetyl-cymaropyranoside] | 46.3 | < 50 | only mild cytotoxicity at the highest concentrations | significant reduction |  | 46.3 |  |  | 
COC1CC(OC2CCC3(C)C(CCC4(O)C3CC(OC(=O)C=Cc3ccccc3)C3(C)C(C(C)O)CCC43O)C2)OC(C)C1OC1CC(OC)C(OC2OC(C)C(OC3OC(CO)C(OC4OC(CO)C(O)C(O)C4O)C(O)C3O)C(OC)C2O)C(C)O1 [Compound 6, 12-O-cinnamoyl-(20S)-5,6,17-trihydrosarcostin-3-O-β-D-glucopyranosyl-(1 → 4)-β-D glucopyranosyl-(1 → 4)-β-D-6-deoxy-3-O-methyl-allopyranosyl-(1 → 4)-β-D oleandropyranosyl-(1 → 4)-β-D-cymaropyranoside] |  | < 50 | did not induce cytotoxic effects | did not reduce |  |  |  |  | 
COC1CC(OC2CCC3(C)C(CCC4(O)C3CC(OC(=O)C=Cc3ccccc3)C3(C)C(C(C)O)CCC43O)C2)OC(C)C1OC1CC(OC)C(OC2OC(C)C(O)C(OC)C2O)C(C)O1 [Compound 15, 12-O-cinnamoyl-(20S)-5,6,17-trihydrosarcostin-3-O-β-D-6-deoxy-3-O-methyl-allopyranosyl-(1 → 4)-β-D-oleandropyranosyl-(1 → 4)-β-D-cymaropyranoside] | 33.7 | 62.9 | most cytotoxic | significant reduction |  | 33.8 |  |  | 
COC1CC(OC2CCC3(C)C(=CCC4(O)C3CC(OC(=O)C=Cc3ccccc3)C3(C)C(C(C)O)CCC43O)C2)OC(C)C1OC1CC(OC)C(OC2OC(C)C(O)C(OC)C2O)C(C)O1 [Compound 11, 12-O-cinnamoyl-(20S)-17-hydrosarcostin-3-O-β-D-6-deoxy-3-O-methyl-allopyranosyl-(1 → 4)-β-D-oleandropyranosyl-(1 → 4)-β-D-cymaropyranoside] | 47.3 | 51.8 | most cytotoxic | significant reduction |  | 47.3 |  |  | 
COC1CC(OC2C(O)CC(OC3CCC4(C)C(CCC5(O)C4CC(OC(=O)C=Cc4ccccc4)C4(C)C(C(C)O)CCC54O)C3)OC2C)OC(C)C1OC1OC(C)C(O)C(OC)C1O [Compound 12, 12-O-cinnamoyl-(20S)-5,6,17-trihydrosarcostin-3-O-β-D-6-deoxy-3-O-methyl-allopyranosyl-(1 → 4)-β-D-oleandropyranosyl-(1 → 4)-β-D-digitoxopyranoside] | > 100 | 62 |  | did not reduce |  |  |  |  | 
C[C@@H]1C[C@H]2[C@@H]3CCC4=CC(=O)C=C[C@]4(C)[C@@]3(F)[C@@H](O)C[C@]2(C)[C@@]1(O)C(=O)CO [Dexa, dexamethasone, reference compound] |  |  |  |  |  |  |  | 4.8 | 51.6

From PMC13629022 (ACS Omega, 2026)
